Test results from patent publication US20250313527A1, “AMPHIPHILIC LIPID INCLUDING TERTIARY AMINE N-OXIDE GROUP, LIPOSOMAL DRUG-DELIVERY SYSTEM, AND USE OF AMPHIPHILIC LIPID” (HANGZHOU TITO BIOTECHNOLOGY PARTNERSHIP ENTERPRISE (LIMITED …, priority 2022, published 2025).

Experiment: Plasma clearance and tissue distribution (in vivo imaging of DiR fluorescence)
Conditions: HepG2 tumor-bearing BALB/c nude mice, intravenous injection, FIG. 12 to FIG. 13
Method: Female BALB/c nude mice bearing HepG2 subcutaneous tumors (about 70 mm^3) were randomly divided into three groups with 3 mice in each group, and intravenously injected with DiR, ^DiRODML, or ^DiRODEL. 24 h later, blood was collected from the orbital veins of mice. 500 μL of a blood sample was taken and tested by a small animal in vivo imaging instrument for a fluorescence intensity. Mice were dissected, and tissues such as a heart, a liver, a spleen, a lung, a kidney, an intestine, and a tumor were collected. Each tissue was detected by a small animal in vivo imaging instrument for a fluorescence intensity.

DiR fluorescence signal in the blood or tissues: Almost no fluorescence signal
SMILES: CCCCCCCCCCCCCCCCCCN1/C(=C/C=C/C=C/C=C/C2=[N+](CCCCCCCCCCCCCCCCCC)c3ccccc3C2(C)C)C(C)(C)c2ccccc21.[I-] [DiR]
